Results from publication PMC7316778 (Nature Communications, 2020).
“And” between values parts separate entries of the source, which are not always exact repeats. Identical values can stand only once. Like-named read-outs stand apart in the source and are kept apart here.

Tests used:
[1] = target: NEK9 (Homo sapiens, UniProt Q8TD19); assay: SelectScreen kinase assay
Procedure: (§1) Selectivity profiling assays were performed by the Invitrogen SelectScreen™ Services. […] The concentration of ATP was selected to be equal to the KM, unless indicated otherwise.

[2] = target: PAK1 (Homo sapiens, UniProt Q13153); assay: SelectScreen kinase assay
Procedure: as §1

[3] = target: PI4K2A (PI4K2 alpha) (Homo sapiens, UniProt Q9BTU6); assay: SelectScreen kinase assay
Procedure: as §1

[4] = target: IRAK4 (Homo sapiens, UniProt Q9NWZ3); assay: SelectScreen kinase assay
Procedure: as §1

[5] = target: CDK9/cyclin T1 (Homo sapiens, UniProt P50750); assay: SelectScreen kinase assay
Procedure: as §1

[6] = target: MAP3K2 (MEKK2) (Homo sapiens, UniProt Q9Y2U5); assay: SelectScreen kinase assay
Procedure: as §1

[7] = target: T1, EPHA3 (Homo sapiens, UniProt P29320); assay: SelectScreen kinase assay
T1 sequence (P29320 21-983): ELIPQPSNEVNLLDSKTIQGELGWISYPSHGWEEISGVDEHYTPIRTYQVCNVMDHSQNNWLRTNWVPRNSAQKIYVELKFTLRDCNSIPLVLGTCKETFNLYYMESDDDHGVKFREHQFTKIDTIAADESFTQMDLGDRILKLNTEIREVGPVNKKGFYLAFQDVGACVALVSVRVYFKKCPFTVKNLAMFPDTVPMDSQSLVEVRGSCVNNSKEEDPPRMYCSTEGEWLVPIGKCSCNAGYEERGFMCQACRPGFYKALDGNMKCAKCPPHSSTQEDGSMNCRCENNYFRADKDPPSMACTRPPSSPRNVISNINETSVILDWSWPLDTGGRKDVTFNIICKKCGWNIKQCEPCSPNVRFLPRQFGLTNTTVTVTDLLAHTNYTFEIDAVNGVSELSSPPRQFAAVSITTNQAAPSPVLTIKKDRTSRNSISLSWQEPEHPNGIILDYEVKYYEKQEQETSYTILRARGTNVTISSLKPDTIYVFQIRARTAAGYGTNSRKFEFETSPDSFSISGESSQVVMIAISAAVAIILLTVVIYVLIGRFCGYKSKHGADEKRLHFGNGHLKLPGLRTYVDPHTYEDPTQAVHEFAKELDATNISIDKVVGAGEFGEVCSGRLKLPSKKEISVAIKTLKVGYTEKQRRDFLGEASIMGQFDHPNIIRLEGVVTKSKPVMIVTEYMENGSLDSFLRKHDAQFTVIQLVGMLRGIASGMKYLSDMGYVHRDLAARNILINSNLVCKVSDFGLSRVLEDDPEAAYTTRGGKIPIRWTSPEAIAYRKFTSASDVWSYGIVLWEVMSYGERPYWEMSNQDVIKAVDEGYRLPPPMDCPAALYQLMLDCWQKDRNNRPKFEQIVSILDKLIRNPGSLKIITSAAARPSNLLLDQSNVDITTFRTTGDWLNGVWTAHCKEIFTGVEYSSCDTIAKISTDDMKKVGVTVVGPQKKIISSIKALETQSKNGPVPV
Procedure: as §1

[8] = target: T2, endogenous FES^S700C in HL-60 cells (Homo sapiens, UniProt P07332, S700C); assay: Gel-based target engagement during PMA-induced macrophage differentiation; format: cell-based; settings: for Relative FES labeling (%): Figure 6b
T2 construct: endogenous in cells; host or cells: HL-60 FES^S700C clone, differentiated to macrophages or neutrophils
Procedure: Cells were pretreated with vehicle or WEL028 (100 or 1000 nM, 1 h) prior to induction of differentiation towards monocytes/macrophages with PMA (16 nM, 48 h). Medium was refreshed with growth medium containing WEL028 and PMA after 24 h to maintain full FES inhibition. […] Threshold for CD11b-positive cells was determined using isotype control antibody. […] Kinases with native cysteine at DFG-1 position are shown in bold. All data represent means ± SEM.

[9] = target: T3, BRSK1 (SAD1) (Homo sapiens, UniProt Q8TDC3); assay: SelectScreen kinase assay
T3 sequence (Q8TDC3 1-778): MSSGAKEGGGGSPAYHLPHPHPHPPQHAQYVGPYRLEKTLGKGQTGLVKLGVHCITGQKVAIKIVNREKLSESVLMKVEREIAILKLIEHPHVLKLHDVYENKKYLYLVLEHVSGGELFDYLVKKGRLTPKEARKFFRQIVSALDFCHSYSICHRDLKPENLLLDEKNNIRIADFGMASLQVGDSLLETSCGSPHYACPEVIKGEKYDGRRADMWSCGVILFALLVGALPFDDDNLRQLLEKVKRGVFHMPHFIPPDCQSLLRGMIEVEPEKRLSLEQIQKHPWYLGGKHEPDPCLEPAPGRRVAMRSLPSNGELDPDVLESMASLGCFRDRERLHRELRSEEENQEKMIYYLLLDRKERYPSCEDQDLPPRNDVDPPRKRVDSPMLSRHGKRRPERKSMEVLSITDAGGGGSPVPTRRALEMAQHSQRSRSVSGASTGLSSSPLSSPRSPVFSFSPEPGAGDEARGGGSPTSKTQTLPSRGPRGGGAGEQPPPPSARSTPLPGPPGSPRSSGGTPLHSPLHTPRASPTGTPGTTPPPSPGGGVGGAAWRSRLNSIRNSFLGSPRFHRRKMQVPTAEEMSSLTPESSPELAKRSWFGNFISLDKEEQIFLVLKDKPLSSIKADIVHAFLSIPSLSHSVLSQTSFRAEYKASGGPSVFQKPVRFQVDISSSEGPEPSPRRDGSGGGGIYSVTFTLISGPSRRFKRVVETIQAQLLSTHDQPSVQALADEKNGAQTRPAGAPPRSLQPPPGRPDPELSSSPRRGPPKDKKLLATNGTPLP
Procedure: as §1

[10] = target: DYRK1A (Homo sapiens, UniProt Q13627); assay: SelectScreen kinase assay; settings: for Inhibition at 1 µM (%): DYRK1A, ZLYTE, ATP Km app
Procedure: as §1

[11] = 1 h, 1 μM WEL028, 1 h preincubation

Sequence of PI4K2A (PI4K2 alpha) (Q9BTU6 whole entry): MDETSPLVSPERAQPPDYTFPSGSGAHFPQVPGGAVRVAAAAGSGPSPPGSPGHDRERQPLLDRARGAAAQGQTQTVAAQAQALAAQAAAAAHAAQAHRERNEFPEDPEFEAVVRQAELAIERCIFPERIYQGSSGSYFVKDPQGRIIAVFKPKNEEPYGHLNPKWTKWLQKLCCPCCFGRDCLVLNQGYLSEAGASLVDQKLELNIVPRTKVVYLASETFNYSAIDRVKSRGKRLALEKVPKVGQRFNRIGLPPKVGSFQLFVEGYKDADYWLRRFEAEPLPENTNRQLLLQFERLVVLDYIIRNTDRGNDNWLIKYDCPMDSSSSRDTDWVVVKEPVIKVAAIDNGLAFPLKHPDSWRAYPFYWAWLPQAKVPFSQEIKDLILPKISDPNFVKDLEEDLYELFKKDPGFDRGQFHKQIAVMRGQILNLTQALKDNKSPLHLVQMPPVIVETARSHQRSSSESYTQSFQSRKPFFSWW
Sequence of IRAK4 (Q9NWZ3 whole entry): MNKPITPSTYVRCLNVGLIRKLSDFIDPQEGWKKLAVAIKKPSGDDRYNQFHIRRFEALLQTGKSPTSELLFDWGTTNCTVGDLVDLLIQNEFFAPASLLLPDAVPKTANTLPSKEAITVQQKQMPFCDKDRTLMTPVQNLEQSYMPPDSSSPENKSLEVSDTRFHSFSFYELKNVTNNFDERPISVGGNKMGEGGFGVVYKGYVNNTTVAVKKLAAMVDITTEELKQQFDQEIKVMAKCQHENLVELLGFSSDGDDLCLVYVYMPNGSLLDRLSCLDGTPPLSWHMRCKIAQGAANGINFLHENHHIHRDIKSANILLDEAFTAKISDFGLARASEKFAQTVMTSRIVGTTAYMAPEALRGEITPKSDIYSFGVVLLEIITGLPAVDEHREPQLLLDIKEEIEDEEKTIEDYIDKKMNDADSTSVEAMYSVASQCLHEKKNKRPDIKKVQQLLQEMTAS
Sequence of NEK9 (Q8TD19 whole entry): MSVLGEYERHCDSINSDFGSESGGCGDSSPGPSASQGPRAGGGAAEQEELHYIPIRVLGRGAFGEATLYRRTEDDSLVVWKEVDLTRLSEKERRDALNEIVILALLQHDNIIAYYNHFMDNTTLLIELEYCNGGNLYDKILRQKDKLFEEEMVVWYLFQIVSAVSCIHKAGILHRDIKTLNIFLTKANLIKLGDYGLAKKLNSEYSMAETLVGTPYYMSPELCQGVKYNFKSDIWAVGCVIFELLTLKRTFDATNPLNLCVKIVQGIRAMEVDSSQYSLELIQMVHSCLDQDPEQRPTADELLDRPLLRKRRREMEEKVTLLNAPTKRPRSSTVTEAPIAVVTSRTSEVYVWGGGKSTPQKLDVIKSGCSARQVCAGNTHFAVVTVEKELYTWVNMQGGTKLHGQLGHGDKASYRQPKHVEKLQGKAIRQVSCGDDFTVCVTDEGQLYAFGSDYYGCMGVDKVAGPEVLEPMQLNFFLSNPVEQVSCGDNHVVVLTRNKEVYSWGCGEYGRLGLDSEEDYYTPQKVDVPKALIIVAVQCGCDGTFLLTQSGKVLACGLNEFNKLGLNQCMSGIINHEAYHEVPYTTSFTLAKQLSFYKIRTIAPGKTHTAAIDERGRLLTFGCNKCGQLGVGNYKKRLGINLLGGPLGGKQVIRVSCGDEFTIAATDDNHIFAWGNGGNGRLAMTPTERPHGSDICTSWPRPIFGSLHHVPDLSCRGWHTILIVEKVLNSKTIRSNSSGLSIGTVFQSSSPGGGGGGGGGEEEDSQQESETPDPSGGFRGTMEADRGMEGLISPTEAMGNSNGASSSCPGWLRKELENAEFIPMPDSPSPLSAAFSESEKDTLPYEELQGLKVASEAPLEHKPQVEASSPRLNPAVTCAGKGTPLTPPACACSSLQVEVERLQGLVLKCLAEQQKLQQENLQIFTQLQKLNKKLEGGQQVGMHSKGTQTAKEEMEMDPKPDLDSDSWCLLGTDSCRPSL
T2 sequence (P07332 whole entry S700C): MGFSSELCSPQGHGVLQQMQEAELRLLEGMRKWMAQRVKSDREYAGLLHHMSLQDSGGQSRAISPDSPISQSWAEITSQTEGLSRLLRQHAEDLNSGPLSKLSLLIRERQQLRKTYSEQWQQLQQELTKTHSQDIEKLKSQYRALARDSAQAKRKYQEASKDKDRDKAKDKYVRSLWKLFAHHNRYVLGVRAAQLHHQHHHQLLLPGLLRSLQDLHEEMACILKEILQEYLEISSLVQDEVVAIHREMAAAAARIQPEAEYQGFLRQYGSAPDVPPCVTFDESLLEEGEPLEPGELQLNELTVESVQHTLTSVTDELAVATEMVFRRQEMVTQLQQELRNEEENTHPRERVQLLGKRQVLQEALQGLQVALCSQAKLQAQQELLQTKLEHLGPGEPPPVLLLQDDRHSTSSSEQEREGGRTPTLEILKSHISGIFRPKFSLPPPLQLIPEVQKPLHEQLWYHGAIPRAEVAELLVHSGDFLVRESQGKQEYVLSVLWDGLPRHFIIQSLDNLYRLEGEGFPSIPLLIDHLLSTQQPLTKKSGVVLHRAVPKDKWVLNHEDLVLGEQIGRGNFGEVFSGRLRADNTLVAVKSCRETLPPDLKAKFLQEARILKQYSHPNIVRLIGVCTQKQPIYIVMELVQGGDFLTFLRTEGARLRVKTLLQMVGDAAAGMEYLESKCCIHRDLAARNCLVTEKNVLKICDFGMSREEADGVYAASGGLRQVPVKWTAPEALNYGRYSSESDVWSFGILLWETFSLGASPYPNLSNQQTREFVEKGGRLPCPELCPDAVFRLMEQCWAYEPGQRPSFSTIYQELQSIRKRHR
Sequence of CDK9/cyclin T1 (P50750 whole entry): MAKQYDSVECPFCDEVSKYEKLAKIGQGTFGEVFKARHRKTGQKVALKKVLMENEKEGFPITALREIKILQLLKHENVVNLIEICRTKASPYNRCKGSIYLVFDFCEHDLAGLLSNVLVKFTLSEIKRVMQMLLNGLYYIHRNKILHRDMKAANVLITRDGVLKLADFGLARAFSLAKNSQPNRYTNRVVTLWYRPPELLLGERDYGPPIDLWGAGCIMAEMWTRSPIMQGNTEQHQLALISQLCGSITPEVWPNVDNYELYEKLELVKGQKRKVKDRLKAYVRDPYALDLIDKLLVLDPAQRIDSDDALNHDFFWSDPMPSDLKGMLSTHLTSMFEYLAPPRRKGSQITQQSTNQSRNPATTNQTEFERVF
Sequence of CDK9/cyclin T1 (O60563 whole entry partner): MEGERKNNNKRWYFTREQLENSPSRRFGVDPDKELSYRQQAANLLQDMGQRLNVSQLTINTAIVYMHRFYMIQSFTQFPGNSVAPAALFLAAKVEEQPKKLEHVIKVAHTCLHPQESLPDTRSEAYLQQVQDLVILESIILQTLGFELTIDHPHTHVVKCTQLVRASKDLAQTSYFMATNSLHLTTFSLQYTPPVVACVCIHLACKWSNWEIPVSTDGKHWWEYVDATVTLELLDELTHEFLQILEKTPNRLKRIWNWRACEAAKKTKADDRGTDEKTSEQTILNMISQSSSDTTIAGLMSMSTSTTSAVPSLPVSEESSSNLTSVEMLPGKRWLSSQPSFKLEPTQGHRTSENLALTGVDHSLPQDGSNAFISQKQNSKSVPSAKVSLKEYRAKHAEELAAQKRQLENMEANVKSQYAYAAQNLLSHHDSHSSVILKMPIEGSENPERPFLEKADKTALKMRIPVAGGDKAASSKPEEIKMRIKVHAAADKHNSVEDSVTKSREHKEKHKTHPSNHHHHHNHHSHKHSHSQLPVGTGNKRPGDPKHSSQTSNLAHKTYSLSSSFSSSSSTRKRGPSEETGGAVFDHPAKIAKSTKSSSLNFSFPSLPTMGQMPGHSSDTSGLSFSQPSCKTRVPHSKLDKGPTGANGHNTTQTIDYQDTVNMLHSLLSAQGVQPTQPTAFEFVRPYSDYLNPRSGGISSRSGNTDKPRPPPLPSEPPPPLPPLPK
Sequence of MAP3K2 (MEKK2) (Q9Y2U5 whole entry): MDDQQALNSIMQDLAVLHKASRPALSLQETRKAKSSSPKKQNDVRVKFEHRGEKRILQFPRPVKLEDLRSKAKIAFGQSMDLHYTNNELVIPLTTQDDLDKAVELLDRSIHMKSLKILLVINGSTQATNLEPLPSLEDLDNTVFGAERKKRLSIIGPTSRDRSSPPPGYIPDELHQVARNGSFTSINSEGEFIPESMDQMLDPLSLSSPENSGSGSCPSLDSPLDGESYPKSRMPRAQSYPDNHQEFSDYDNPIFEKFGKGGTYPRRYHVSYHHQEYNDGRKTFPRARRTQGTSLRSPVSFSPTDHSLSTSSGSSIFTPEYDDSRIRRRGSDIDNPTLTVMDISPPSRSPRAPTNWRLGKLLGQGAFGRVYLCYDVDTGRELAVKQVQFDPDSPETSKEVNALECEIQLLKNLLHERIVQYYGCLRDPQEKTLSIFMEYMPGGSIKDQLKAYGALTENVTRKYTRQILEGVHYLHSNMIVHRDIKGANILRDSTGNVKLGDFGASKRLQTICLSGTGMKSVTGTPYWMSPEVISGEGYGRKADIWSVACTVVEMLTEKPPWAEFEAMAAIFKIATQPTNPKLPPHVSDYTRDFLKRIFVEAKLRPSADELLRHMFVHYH
Sequence of PAK1 (Q13153 whole entry): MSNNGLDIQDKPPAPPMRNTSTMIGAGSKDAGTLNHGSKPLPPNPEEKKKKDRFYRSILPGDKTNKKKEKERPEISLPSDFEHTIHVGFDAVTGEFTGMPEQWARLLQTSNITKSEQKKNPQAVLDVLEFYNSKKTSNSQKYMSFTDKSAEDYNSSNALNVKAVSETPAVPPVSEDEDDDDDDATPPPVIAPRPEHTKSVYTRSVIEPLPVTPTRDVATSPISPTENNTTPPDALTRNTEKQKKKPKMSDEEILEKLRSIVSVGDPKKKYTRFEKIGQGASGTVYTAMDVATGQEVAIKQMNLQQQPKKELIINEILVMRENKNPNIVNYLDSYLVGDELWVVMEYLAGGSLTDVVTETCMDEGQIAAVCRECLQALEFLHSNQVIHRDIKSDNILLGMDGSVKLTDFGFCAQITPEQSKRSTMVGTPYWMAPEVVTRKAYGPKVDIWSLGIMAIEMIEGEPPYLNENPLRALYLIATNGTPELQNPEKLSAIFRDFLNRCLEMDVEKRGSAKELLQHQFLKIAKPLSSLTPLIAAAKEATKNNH

Question: Which inhibition at 1 µM [1, 11] does the source give for `C#CCOc1ccc(Nc2ncc(Cl)c(Nc3ccccc3NC(=O)C=C)n2)c(OC)c1` [Compound 6] here?
Answer: -8%

Question: What about the “Inhibition at 1 µM (%)” value ([1]; NEK9, 1 µM, ZLYTE, ATP Km app, listed as WEL028, 1 µM) of the same compound?
Answer: -7% and -9%

Question: What about the inhibition at 1 µM ([2]; 1 h) of the same compound?
Answer: 8%

Question: And the inhibition at 1 µM ([2]; read-out: Inhibition at 1 µM (%))?
Answer: 8%

Question: What about the inhibition at 1 µM [3, 11] of the same compound?
Answer: 0%

Question: What about the “Inhibition at 1 µM (%)” value ([3]; PI4K2A (PI4K2 alpha), 1 µM, Adapta, ATP 10, listed as WEL028, 1 µM) of the same compound?
Answer: 2% and -2%

Question: And the “Inhibition (%)” value ([4]; 1 μM WEL028, 1 h preincubation)?
Answer: 0%

Question: And the “Inhibition at 1 µM (%)” value ([4]; IRAK4, 1 µM, ZLYTE, ATP Km app, listed as WEL028, 1 µM)?
Answer: -3% and 3%

Question: And the inhibition at 1 µM [5, 11]?
Answer: 16%

Question: What about the “Inhibition at 1 µM (%)” value ([5]; CDK9/cyclin T1, 1 µM, Adapta, ATP Km app, listed as WEL028, 1 µM) of the same compound?
Answer: 12%

Question: What about the inhibition at 1 µM ([5]; read-out: Inhibition at 1 µM (%), CDK9/cyclin T1, 1 µM, Adapta, ATP Km app) of the same compound?
Answer: 20%

Question: And the inhibition at 1 µM [6, 11]?
Answer: 3%

Question: What about the “Inhibition at 1 µM (%)” value ([6]; MAP3K2 (MEKK2), 1 µM, LanthaScreen Binding, listed as WEL028, 1 µM) of the same compound?
Answer: 6% and 1%

Question: And the inhibition at 1 µM [7, 11]?
Answer: 9%

Question: And the “Inhibition at 1 µM (%)” value ([7]; EPHA3, 1 µM, LanthaScreen Binding, listed as WEL028, 1 µM)?
Answer: 8%

Question: And the inhibition at 1 µM ([7]; read-out: Inhibition at 1 µM (%), EPHA3, 1 µM, LanthaScreen Binding)?
Answer: 10%

Question: And the “Target engagement of engineered FES” value ([8]; 100 nM WEL028 during PMA-induced differentiation)?
Answer: full target engagement

Question: What about the “Relative FES labeling (%)” value ([8]; WEL028 100 nM) of the same compound?
Answer: 6.297% and 1.811% and 0.4549%

Question: And the “Relative FES labeling (%)” value ([8]; WEL028 1 µM)?
Answer: -1.423% and -3.177% and -0.4317%

Question: What about the inhibition at 1 µM [9, 11] of the same compound?
Answer: 2%

Question: And the “Inhibition at 1 µM (%)” value ([9]; BRSK1 (SAD1), 1 µM, ZLYTE, ATP Km app, listed as WEL028, 1 µM)?
Answer: 1%

Question: What about the inhibition at 1 µM ([9]; read-out: Inhibition at 1 µM (%), BRSK1 (SAD1), 1 µM, ZLYTE, ATP Km app) of the same compound?
Answer: 2%

Question: And the inhibition at 1 µM [10, 11]?
Answer: 1%

Question: What about the “Inhibition at 1 µM (%)” value [10] of the same compound?
Answer: 3%

Question: And the “Inhibition at 1 µM (%)” value ([10]; listed as WEL028, 1 µM)?
Answer: 0%
